Data as given in patent US20250352653A1, “NEURON TARGETED 2-DEOXYGLUCOSE DENDRIMER FOR IMAGING AND TREATMENT OF NEUROLOGICAL DISEASES” (Washington State University, priority 2024, published 2025).

Assays:
[1] = free drug; cited from earlier work
[2] = test system: IL-6; assay: Quantitative IL-6 ELISA; format: cell-based; conditions: LPS:H2O2 induced CATH.a, control ~1-fold
Procedure: (§1) For determining the effect of 2DG-D-Rosi conjugates on the neuro-inflammation under in vitro conditions, the expression levels of tumor necrosis factor-alpha (TNF-α) and interleukin-6 (IL-6) were analyzed using an enzyme-linked immunosorbent assay (ELISA). The protocol was adapted from previously published literature with slight modifications. Briefly, CATH.a neurons (5×10^4 cells/well) were seeded into 96-well plates and cultured overnight. The cells were pre-treated with lipopolysaccharide (LPS; 1 μg/mL) and hydrogen peroxide (H2O2, 100 μM) and then incubated with 2DG-D-Rosi conjugates at varying concentrations (50, 100, and 250 μg/mL) for 24 hours at 37° C. in a CO2 incubator. Following the treatment, the consumed culture media was collected and centrifuged at 12,000×g for 10 minutes to remove cellular debris. A 50 μL aliquot of the supernatant was added to ELISA plates pre-coated with primary antibodies for TNF-α and IL-6, respectively, and incubated for approximately 2 h. The cytokine concentrations (pg/mL) were determined using standard calibration curves provided in the ELISA kit, adhering to the manufacturer's instructions. All experiments were performed in triplicates, with appropriate controls.

[3] = test system: CATH.a cells; assay: Annexin V/propidium iodide assay; format: cell-based; conditions: 250 μg/mL
Procedure: Apoptosis/necrosis was assessed in CATH.a cells using the FITC ApoScreen® Annexin V Apoptosis Kit. Cells were pre-treated with LPS (1 μg/mL) and H2O2 (100 μM) for 6 hours to mimic TBI-like conditions, followed by 2DG-D-Rosi treatment for 24 hours at 37° C., 5% CO2. After incubation, cells were harvested, washed twice with cold PBS, and resuspended in 100 μL of 1× Annexin Binding Buffer. Staining was performed with 10 μL Annexin V-FITC and 10 μL Propidium Iodide (PI) for 15 minutes at 2-8° C. in the dark, followed by dilution with 380 μL 1× Annexin Binding Buffer. Samples were analyzed on an Attune NxT® Flow Cytometer using BL-1 (530/30 nm) for Annexin V-FITC and YL-1 (585/16 nm) for PI. Controls included unstained, Annexin V-only, and PI-only samples. Density plots were generated to classify viable, early apoptotic, necrotic, and late apoptotic/necrotic cells. The experiment was performed in triplicate (n=3), and data was analyzed using GraphPad Prism® with statistical significance determined by a two-tailed t-test.

[4] = test system: TNF-α; assay: Quantitative TNF-α ELISA; format: cell-based; conditions: LPS:H2O2 induced CATH.a, control 1-fold
Procedure: as §1, with “The cells were pre-treated with lipopolysaccharide (LPS; 1 μg/mL) and hydrogen peroxide (H2O2, 100 μM) and then incubated with 2DG-D-Rosi conjugates at varying concentrations (50, 100, and 250 μg/mL) for 24 hours at 37° C. in a CO2 incubator.” left out

[5] = test system: EOC 20 microglial cells; assay: MTT cytocompatibility, EOC 20; format: cell-based; conditions: all tested concentrations, 24 h
Procedure: (§2) Cytocompatibility studies were carried out using MTT assay as described in our previous work. […] After this, all the treated cells were incubated with MTT for 3 h till the purple-colored formazan crystals appeared. For dissolving these crystals, cell culture grade DMSO was added to each of the wells and incubated for 15 min. Finally, the absorbance was recorded at 570 nm using Synergy H1 hybrid multi-mode microplate. The percentage cytocompatibility was calculated using equation 2. All the measurements were done in triplicates with proper controls.

[6] = test system: human umbilical vein endothelial cells (HUVECs); assay: MTT cytocompatibility, HUVEC; format: cell-based; conditions: all tested concentrations, 24 h
Procedure: as §2

[7] = test system: CATH.a cells; assay: JC-1 mitochondrial membrane potential (MMP) assay; format: cell-based; conditions: for MFI of J-monomers (confocal): control ~141
Procedure: The JC-1 Mitochondrial Membrane Potential (MMP) Assay was used to assess 2DG-D-Rosi effects on CATH.a cells under TBI-like conditions via flow cytometry and confocal microscopy. Cells were pre-treated with LPS (1 μg/mL) and H2O2 (100 μM), followed by 2DG-D-Rosi treatment for 24 hours at 37° C., 5% CO2. After incubation, cells were stained with 2 μM JC-1 dye for 20 minutes at 37° C. in the dark. For flow cytometry, cells were analyzed on an Attune NxT® Flow Cytometer, with JC-1 monomers (green, depolarized mitochondria) detected in BL-1 (530/30 nm) and J-aggregates (red, polarized mitochondria) in YL-1 (585/16 nm). For confocal microscopy, cells were seeded on poly-L-lysine-coated coverslips, stained with JC-1, counterstained with DAPI, and imaged using a Leica SP-5 Confocal Microscope (20× water immersion magnification). The experiment was conducted in triplicate (n=3), and data were analyzed using GraphPad Prism® with statistical significance determined by a two-tailed t-test.

[8] = Water solubility; format: physicochemical; conditions: Rosi and its 2DG-D conjugate
[9] = test system: PPARγ; assay: PPARγ expression by flow cytometry and immunofluorescence; format: cell-based; conditions: for PPARγ expression (confocal, ImageJ): LPS:H2O2 group 1-fold
Procedure: For flow cytometry, 1×10^5 cells per sample were fixed in 4% PFA, permeabilized with 0.2% Triton® X-100, blocked with 3% BSA, and incubated overnight at 4° C. with an anti-PPARγ antibody.
For immunofluorescence, 5×10^4 cells per well were grown on poly-L-lysine-coated coverslips, treated, washed, and blocked with 3% BSA, followed by overnight incubation with an anti-PPARγ antibody at 4° C. on a 3D shaker. […] Imaging was performed using a […] SP5 Confocal Microscope (20× water immersion lens). The experiment was conducted in triplicate (n=3), and statistical significance was determined using GraphPad Prism® with a two-tailed t-test.

[10] = test system: CATH.a neurons; assay: MTT cytocompatibility, CATH.a; format: cell-based; conditions: all tested concentrations, 24 h
Procedure: as §2

[11] = test system: Caspase-3/7; assay: Caspase-3/7 activity assay; format: cell-based; conditions: for caspase activity (confocal, ImageJ): control 100%
Procedure: For flow cytometry, 1×10^5lls per sample were incubated with Pheno Vue® 505 caspase-3/7 stain in fresh medium for 30 minutes, washed with PBS, and analyzed on an Attune NxT® Flow Cytometer using BL-1 (530/30 nm) for caspase activation detection. For confocal microscopy, 2×10^5 cells per well were seeded on poly-L-lysine-coated coverslips, stained with caspase-3/7 reagent, fixed in 4% PFA, permeabilized with 0.1% Triton® X-100, and counterstained with DAPI. Coverslips were mounted with Vectashield Plus® antifade medium and imaged using a Leica SP-5 Confocal Microscope (20× water immersion lens). The experiment was conducted in triplicate (n=3), and statistical significance was determined using GraphPad Prism® with a two-tailed t-test.

## CCc1ccc(CCOc2ccc(CC3SC(=O)NC3=O)cc2)nc1 (stereo not drawn) [Pio, pioglitazone]
[1]
  water solubility of free Pio: 4.42 µg/mL

## CN(CCOc1ccc(CC2SC(=O)NC2=O)cc1)c1ccccn1 (stereo not drawn) [Rosi, rosiglitazone]
[2]; 50 μg/mL
  IL-6 levels: 0.88 fold
[2]; 100 μg/mL
  IL-6 levels: 0.86 fold
[2]; 250 μg/mL
  IL-6 levels: 0.67 fold
[3]; LPS:H2O2 treated CATH.a (~31.07%)
  necrosis: ~1.67%
[3]; LPS:H2O2 treated CATH.a
  apoptosis: ~54.6%
[4]; 100 μg/mL
  TNF-α levels: 0.91 fold
[4]; 250 μg/mL
  TNF-α levels: 0.85 fold
[4]; 500 μg/mL
  TNF-α levels: 0.77 fold
[5]
  cytotoxicity (MTT): No toxic effects
[6]
  cytotoxicity (MTT): No toxic effects
[7]; 50 μg/mL
  MFI of J-monomers (confocal): ~89
[7]; 100 μg/mL
  MFI of J-monomers (confocal): 74
[7]; 250 μg/mL, LPS:H2O2 group ~2.7
  MFI of J-aggregates (red fluorescence): ~78.1
[7]; 250 μg/mL
  MFI of J-monomers (confocal): 72
[7]; LPS+H2O2 ~0.24%, 2DG-D and Rosi at 250
  healthy mitochondria, flow cytometry: ~21.54%
[7]; LPS+H2O2 ~95.13%, 2DG-D and Rosi at 250
  depolarized mitochondria (J-Mon+/J-Agg-), flow cytometry: ~69.73%
[8]
  solubility in water: sparingly soluble
[9]; 50 μg/mL
  PPARγ expression (confocal, ImageJ): 1.82 fold
[9]; 100 μg/mL
  PPARγ expression (confocal, ImageJ): 1.79 fold
[9]; 250 μg/mL
  PPARγ expression (confocal, ImageJ): 1.9 fold
[9]; LPS+H2O2 ~206, untreated ~112
  PPARγ expression MFI (flow cytometry): ~556
[10]
  cytotoxicity (MTT): No toxic effects
[11]; 50 μg/mL
  caspase activity (confocal, ImageJ): ~75%
[11]; 100 μg/mL
  caspase activity (confocal, ImageJ): ~63%
[11]; 250 μg/mL
  caspase activity (confocal, ImageJ): ~68%
[11]; free Rosi vs LPS:H2O2, flow cytometry
  lowering of caspase activity: ~70%
